Test results: ChEMBL document CHEMBL6127078, “Discovery of 7-(1-methyl-1H-pyrazol-4-yl)-1,6-naphthyridine derivatives as potent inhibitors of rearranged during transfection (RET) and RET solvent-front mutants for overcoming selpercatinib resistance” (Eur J Med Chem, 2024)

The molecules below were run against Proto-oncogene tyrosine-protein kinase receptor Ret (Homo sapiens, UniProt P07949, M918T) (assay: Inhibition of RET M918T mutant (unknown origin) by FRET-based ZLyte kinase assay).
Proto-oncogene tyrosine-protein kinase receptor Ret (Homo sapiens, UniProt P07949, M918T), sequence (P07949 29-1114 M918T limits assumed): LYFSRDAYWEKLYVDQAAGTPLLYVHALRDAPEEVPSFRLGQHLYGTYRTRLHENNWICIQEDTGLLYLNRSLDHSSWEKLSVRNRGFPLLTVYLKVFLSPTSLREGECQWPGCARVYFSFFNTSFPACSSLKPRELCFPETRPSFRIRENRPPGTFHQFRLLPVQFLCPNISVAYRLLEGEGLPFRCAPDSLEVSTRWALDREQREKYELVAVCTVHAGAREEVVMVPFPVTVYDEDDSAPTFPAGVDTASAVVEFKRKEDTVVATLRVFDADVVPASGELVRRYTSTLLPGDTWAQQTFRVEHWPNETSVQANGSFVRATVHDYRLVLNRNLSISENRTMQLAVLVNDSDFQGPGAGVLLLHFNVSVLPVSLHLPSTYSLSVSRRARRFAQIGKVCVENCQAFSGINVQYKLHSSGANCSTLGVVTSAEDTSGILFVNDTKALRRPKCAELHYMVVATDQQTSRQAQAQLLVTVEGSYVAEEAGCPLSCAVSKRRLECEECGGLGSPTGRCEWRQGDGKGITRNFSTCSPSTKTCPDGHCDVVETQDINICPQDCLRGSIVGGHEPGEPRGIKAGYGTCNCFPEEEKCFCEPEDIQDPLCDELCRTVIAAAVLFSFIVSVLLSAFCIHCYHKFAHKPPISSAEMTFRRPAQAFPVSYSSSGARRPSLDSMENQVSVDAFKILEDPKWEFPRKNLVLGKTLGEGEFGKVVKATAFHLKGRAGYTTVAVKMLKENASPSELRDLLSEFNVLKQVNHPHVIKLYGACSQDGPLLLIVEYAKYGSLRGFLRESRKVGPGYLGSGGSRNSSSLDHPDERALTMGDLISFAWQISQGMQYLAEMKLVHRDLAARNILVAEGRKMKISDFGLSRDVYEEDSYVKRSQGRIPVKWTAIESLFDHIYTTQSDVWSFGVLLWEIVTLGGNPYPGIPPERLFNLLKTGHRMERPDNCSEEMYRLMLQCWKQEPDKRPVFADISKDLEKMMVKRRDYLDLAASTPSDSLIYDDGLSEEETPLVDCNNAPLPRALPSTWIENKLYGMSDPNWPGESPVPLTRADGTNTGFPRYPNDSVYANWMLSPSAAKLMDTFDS

In order of rising IC50:
1. COc1ccc(CN2C3CC2CN(c2ccc(-c4nc(-c5cnn(C)c5)cc5ncccc45)cn2)C3)cc1  4.7 nM
2. Cn1cc(-c2cc3ncccc3c(-c3ccc(N4CC5CC(C4)N5Cc4ccc(Cl)nc4)nc3)n2)cn1  5.1 nM
3. Cn1cc(-c2cc3ncccc3c(-c3ccc(N4CC5CC(C4)N5C(=O)Cc4cccc(Cl)c4)nc3)n2)cn1  5.9 nM
4. COc1ccc(CN2C3CC2CN(c2ccc(-c4nc(-c5cn[nH]c5)cc5ncccc45)cn2)C3)cn1  6.5 nM
5. Cn1cc(-c2cc3ncccc3c(-c3ccc(N4CC5CC(C4)N5Cc4ccc(F)nc4)nc3)n2)cn1  9.3 nM
6. Cc1ccc(CN2C3CC2CN(c2ccc(-c4nc(-c5cnn(C)c5)cc5ncccc45)cn2)C3)cn1  16.2 nM
7. COc1ccc(CN2C3CC2CN(c2ccc(-c4nc(-c5cnn(C)c5)cc5ncccc45)cn2)C3)cc1Br  17.2 nM
8. COc1ccc(CN2C3CC2CN(c2ccc(-c4nc(C)cc5ncccc45)cn2)C3)cn1  33.6 nM
9. COc1ccc(CN2C3CC2CN(c2ccc(-c4nc(-c5cc[nH]n5)cc5ncccc45)cn2)C3)cn1  49.7 nM
10. COc1ccc(CN2C3CC2CN(c2ccc(-c4nc(-c5ccn(C)n5)cc5ncccc45)cn2)C3)cn1  50.4 nM
11. Cn1cc(-c2cc3ncccc3c(-c3ccc(N4CC5CC(C4)N5C(=O)CC4CCOCC4)nc3)n2)cn1  54.9 nM
12. COc1ccc(CN2C3CC2CN(c2ccc(-c4cccc5ncncc45)cn2)C3)cn1  91.5 nM
13. Cn1cc(-c2cc3ncccc3c(-c3ccc(N4CC5CC(C4)N5C(=O)CN4CCOCC4)nc3)n2)cn1  107 nM
14. COc1ccc(CN2C3CC2CN(c2ccc(-c4nc(-c5cnn(C)c5)cc5ncccc45)cn2)C3)cc1N  176 nM
15. COc1ccc(CN2C3CC2CN(c2ccc(-c4cccc5ncccc45)cn2)C3)cn1  304 nM
16. COc1ccc(CN2C3CC2CN(c2ccc(-c4nc(-c5ccc(F)cc5)cc5ncccc45)cn2)C3)cn1  408 nM
17. COc1ccc(CN2C3CC2CN(c2ccc(-c4cccc5cnccc45)cn2)C3)cn1  615 nM

Each molecule was assayed on Proto-oncogene tyrosine-protein kinase receptor Ret (Homo sapiens), P07949 [G810R] (assay: Potency index, ratio of selpercatinib IC50 to test compound IC50 for inhibition of RET G810R mutant (unknown origin) by FRET-based ZLyte kinase assay).
Proto-oncogene tyrosine-protein kinase receptor Ret (Homo sapiens), P07949 [G810R], sequence (P07949 whole entry G810R): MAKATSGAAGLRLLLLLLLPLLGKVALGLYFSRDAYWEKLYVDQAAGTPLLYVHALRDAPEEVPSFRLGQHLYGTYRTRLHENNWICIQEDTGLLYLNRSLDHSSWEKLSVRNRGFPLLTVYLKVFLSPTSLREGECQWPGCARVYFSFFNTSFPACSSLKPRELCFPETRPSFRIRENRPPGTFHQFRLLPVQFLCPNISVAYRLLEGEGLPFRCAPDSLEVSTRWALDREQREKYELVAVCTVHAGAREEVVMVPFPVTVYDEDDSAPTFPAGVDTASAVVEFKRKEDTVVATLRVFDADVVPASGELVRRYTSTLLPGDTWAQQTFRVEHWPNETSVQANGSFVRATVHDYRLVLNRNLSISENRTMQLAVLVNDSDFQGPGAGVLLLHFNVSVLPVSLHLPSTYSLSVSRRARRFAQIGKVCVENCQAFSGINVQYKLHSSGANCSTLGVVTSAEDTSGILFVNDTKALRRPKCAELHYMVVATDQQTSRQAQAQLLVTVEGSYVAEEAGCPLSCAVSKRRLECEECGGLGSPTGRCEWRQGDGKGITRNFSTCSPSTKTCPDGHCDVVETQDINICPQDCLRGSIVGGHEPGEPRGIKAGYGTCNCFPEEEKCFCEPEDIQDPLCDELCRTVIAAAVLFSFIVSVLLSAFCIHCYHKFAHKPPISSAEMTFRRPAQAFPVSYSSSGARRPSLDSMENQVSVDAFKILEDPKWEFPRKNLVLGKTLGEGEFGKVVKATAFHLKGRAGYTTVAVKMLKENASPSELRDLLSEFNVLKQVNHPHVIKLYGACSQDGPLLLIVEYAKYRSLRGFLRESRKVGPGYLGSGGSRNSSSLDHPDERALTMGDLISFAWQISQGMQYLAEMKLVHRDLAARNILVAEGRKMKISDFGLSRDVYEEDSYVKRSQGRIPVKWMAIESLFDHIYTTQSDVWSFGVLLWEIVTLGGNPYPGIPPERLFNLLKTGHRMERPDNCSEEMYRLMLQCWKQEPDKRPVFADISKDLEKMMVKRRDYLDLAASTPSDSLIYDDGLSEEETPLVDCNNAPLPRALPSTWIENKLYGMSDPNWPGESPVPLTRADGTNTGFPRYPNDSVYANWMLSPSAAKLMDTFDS

Work on `COc1ccc(CN2C3CC2CN(c2ccc(-c4nc(-c5cn[nH]c5)cc5ncccc45)cn2)C3)cn1` yielded a Ratio IC50 of 4.

These molecules were tested against Proto-oncogene tyrosine-protein kinase receptor Ret (Homo sapiens, UniProt P07949) (assay: Inhibition of wild type RET (unknown origin) by FRET-based ZLyte kinase assay).
Proto-oncogene tyrosine-protein kinase receptor Ret (Homo sapiens, UniProt P07949), sequence (P07949 whole entry): as the sequence (P07949 whole entry G810R) above, with R810G counted along it

In order of falling IC50:
1. COc1ccc(CN2C3CC2CN(c2ccc(-c4cccc5cnccc45)cn2)C3)cn1  591 nM
2. COc1ccc(CN2C3CC2CN(c2ccc(-c4nc(-c5ccc(F)cc5)cc5ncccc45)cn2)C3)cn1  242 nM
3. COc1ccc(CN2C3CC2CN(c2ccc(-c4cccc5ncccc45)cn2)C3)cn1  198 nM
4. COc1ccc(CN2C3CC2CN(c2ccc(-c4nc(-c5cnn(C)c5)cc5ncccc45)cn2)C3)cc1N  166 nM
5. Cn1cc(-c2cc3ncccc3c(-c3ccc(N4CC5CC(C4)N5C(=O)CN4CCOCC4)nc3)n2)cn1  112 nM
6. COc1ccc(CN2C3CC2CN(c2ccc(-c4cccc5ncncc45)cn2)C3)cn1  86.3 nM
7. COc1ccc(CN2C3CC2CN(c2ccc(-c4nc(-c5cc[nH]n5)cc5ncccc45)cn2)C3)cn1  68.2 nM
8. Cn1cc(-c2cc3ncccc3c(-c3ccc(N4CC5CC(C4)N5C(=O)CC4CCOCC4)nc3)n2)cn1  62.2 nM
9. COc1ccc(CN2C3CC2CN(c2ccc(-c4nc(-c5ccn(C)n5)cc5ncccc45)cn2)C3)cn1  49.4 nM
10. COc1ccc(CN2C3CC2CN(c2ccc(-c4nc(-c5cnn(C)c5)cc5ncccc45)cn2)C3)cc1Br  41.3 nM
11. COc1ccc(CN2C3CC2CN(c2ccc(-c4nc(C)cc5ncccc45)cn2)C3)cn1  28.5 nM
12. Cn1cc(-c2cc3ncccc3c(-c3ccc(N4CC5CC(C4)N5Cc4ccc(F)nc4)nc3)n2)cn1  16.8 nM
13. Cc1ccc(CN2C3CC2CN(c2ccc(-c4nc(-c5cnn(C)c5)cc5ncccc45)cn2)C3)cn1  12.5 nM
14. Cn1cc(-c2cc3ncccc3c(-c3ccc(N4CC5CC(C4)N5Cc4ccc(Cl)nc4)nc3)n2)cn1  9.8 nM
15. Cn1cc(-c2cc3ncccc3c(-c3ccc(N4CC5CC(C4)N5C(=O)Cc4cccc(Cl)c4)nc3)n2)cn1  9.1 nM
16. COc1ccc(CN2C3CC2CN(c2ccc(-c4nc(-c5cnn(C)c5)cc5ncccc45)cn2)C3)cc1  7.6 nM
17. COc1ccc(CN2C3CC2CN(c2ccc(-c4nc(-c5cn[nH]c5)cc5ncccc45)cn2)C3)cn1  5.9 nM

What follows are molecules tested against Proto-oncogene tyrosine-protein kinase receptor Ret (Homo sapiens, UniProt P07949, G810R) (assay: Inhibition of RET G810R mutant (unknown origin) by FRET-based ZLyte kinase assay).
Proto-oncogene tyrosine-protein kinase receptor Ret (Homo sapiens, UniProt P07949, G810R), sequence (P07949 29-1114 G810R limits assumed): as the sequence (P07949 29-1114 M918T limits assumed) above, with G782R, T890M counted along it

In order of rising IC50:
1. COc1ccc(CN2C3CC2CN(c2ccc(-c4nc(-c5cn[nH]c5)cc5ncccc45)cn2)C3)cn1  69.1 nM
2. COc1ccc(CN2C3CC2CN(c2ccc(-c4nc(-c5ccn(C)n5)cc5ncccc45)cn2)C3)cn1  96.7 nM
3. COc1ccc(CN2C3CC2CN(c2ccc(-c4nc(-c5cnn(C)c5)cc5ncccc45)cn2)C3)cc1Br  107 nM
4. COc1ccc(CN2C3CC2CN(c2ccc(-c4nc(-c5cc[nH]n5)cc5ncccc45)cn2)C3)cn1  109 nM
5. COc1ccc(CN2C3CC2CN(c2ccc(-c4nc(-c5cnn(C)c5)cc5ncccc45)cn2)C3)cc1  114 nM
6. Cn1cc(-c2cc3ncccc3c(-c3ccc(N4CC5CC(C4)N5C(=O)Cc4cccc(Cl)c4)nc3)n2)cn1  180 nM
7. Cn1cc(-c2cc3ncccc3c(-c3ccc(N4CC5CC(C4)N5Cc4ccc(F)nc4)nc3)n2)cn1  237 nM
8. COc1ccc(CN2C3CC2CN(c2ccc(-c4cccc5ncncc45)cn2)C3)cn1  307 nM
9. Cn1cc(-c2cc3ncccc3c(-c3ccc(N4CC5CC(C4)N5Cc4ccc(Cl)nc4)nc3)n2)cn1  361 nM
10. COc1ccc(CN2C3CC2CN(c2ccc(-c4nc(C)cc5ncccc45)cn2)C3)cn1  416 nM
11. Cc1ccc(CN2C3CC2CN(c2ccc(-c4nc(-c5cnn(C)c5)cc5ncccc45)cn2)C3)cn1  437 nM

What follows are molecules tested against Proto-oncogene tyrosine-protein kinase receptor Ret (Homo sapiens, UniProt P07949, V804L) (assay: Inhibition of RET V804L mutant (unknown origin) by FRET-based ZLyte kinase assay).
Proto-oncogene tyrosine-protein kinase receptor Ret (Homo sapiens, UniProt P07949, V804L), sequence (P07949 29-1114 V804L limits assumed): as the sequence (P07949 29-1114 M918T limits assumed) above, with V776L, T890M counted along it

In order of falling IC50:
1. COc1ccc(CN2C3CC2CN(c2ccc(-c4cccc5cnccc45)cn2)C3)cn1  786 nM
2. COc1ccc(CN2C3CC2CN(c2ccc(-c4nc(-c5ccc(F)cc5)cc5ncccc45)cn2)C3)cn1  517 nM
3. COc1ccc(CN2C3CC2CN(c2ccc(-c4cccc5ncccc45)cn2)C3)cn1  285 nM
4. Cn1cc(-c2cc3ncccc3c(-c3ccc(N4CC5CC(C4)N5C(=O)CN4CCOCC4)nc3)n2)cn1  121 nM
5. Cn1cc(-c2cc3ncccc3c(-c3ccc(N4CC5CC(C4)N5C(=O)CC4CCOCC4)nc3)n2)cn1  91.4 nM
6. COc1ccc(CN2C3CC2CN(c2ccc(-c4nc(-c5cnn(C)c5)cc5ncccc45)cn2)C3)cc1N  86.4 nM
7. COc1ccc(CN2C3CC2CN(c2ccc(-c4cccc5ncncc45)cn2)C3)cn1  70.4 nM
8. COc1ccc(CN2C3CC2CN(c2ccc(-c4nc(-c5cc[nH]n5)cc5ncccc45)cn2)C3)cn1  55.7 nM
9. COc1ccc(CN2C3CC2CN(c2ccc(-c4nc(-c5ccn(C)n5)cc5ncccc45)cn2)C3)cn1  21.1 nM
10. COc1ccc(CN2C3CC2CN(c2ccc(-c4nc(C)cc5ncccc45)cn2)C3)cn1  18.6 nM
11. Cc1ccc(CN2C3CC2CN(c2ccc(-c4nc(-c5cnn(C)c5)cc5ncccc45)cn2)C3)cn1  14.4 nM
12. COc1ccc(CN2C3CC2CN(c2ccc(-c4nc(-c5cnn(C)c5)cc5ncccc45)cn2)C3)cc1Br  13.7 nM
13. Cn1cc(-c2cc3ncccc3c(-c3ccc(N4CC5CC(C4)N5Cc4ccc(F)nc4)nc3)n2)cn1  5.6 nM
14. Cn1cc(-c2cc3ncccc3c(-c3ccc(N4CC5CC(C4)N5C(=O)Cc4cccc(Cl)c4)nc3)n2)cn1  4 nM
15. COc1ccc(CN2C3CC2CN(c2ccc(-c4nc(-c5cnn(C)c5)cc5ncccc45)cn2)C3)cc1  3.1 nM
16. Cn1cc(-c2cc3ncccc3c(-c3ccc(N4CC5CC(C4)N5Cc4ccc(Cl)nc4)nc3)n2)cn1  2.3 nM
17. COc1ccc(CN2C3CC2CN(c2ccc(-c4nc(-c5cn[nH]c5)cc5ncccc45)cn2)C3)cn1  1.1 nM
